This test concerns Nrf2. Kind of test: Western blot of Nrf2 signaling pathway associated proteins (Nrf2, Keap-1, HO-1, NQO-1, γ-GCLC). The class given is cell-based, human. As for the experimental part: The effect of the ergothioneine on expressions of Nrf2 protein and downstream proteins of the HaCaT cells is monitored by the Western blot analysis. The detected downstream proteins are heme oxygenase-1 (HO-1) γ-glutamylcysteine ligase catalytic subunit (γ-GCLC) and NAD(P)H: quinone acceptor oxidoreductase 1 (NQO-1). The HaCaT cells are incubated with or without the ergothioneine for 1 hour or 4 hours, wherein the concentration of the ergothioneine is 125 nM, 250 nM and 500 nM, respectively. After incubation, the HaCaT cells are suspended in a lysis buffer to collect the proteins. FIG. 7 illustrates the effect of the ergothioneine on the expressions of the Nrf2 signaling pathway associated proteins of the HaCaT cells.
In addition, we examine the effect of the ergothioneine on the expressions of the Nrf2 and the Nrf2 pathway associated proteins of the HaCaT cells treated with the UVA irradiation. The HaCaT cells are incubated with or without the ergothioneine for 24 hours, wherein the concentration of the ergothioneine is 125 nM, 250 nM and 500 nM, respectively. After incubation, the HaCaT cells are exposed to the UVA (15 J/cm^2), and then cultured for 1 hour or 4 hours. Next, the HaCaT cells are suspended in the lysis buffer to collect the proteins, and the protein expressions are measured by the Western blot analysis. FIG. 8 illustrates the effect of the ergothioneine on the expressions of the Nrf2 signaling pathway associated proteins of the UVA-irradiated HaCaT cells. FIG. 8-(A) represents the Western blot analysis results of total Nrf2 and Keap-1 protein levels, wherein the HaCaT cells are pretreated with the ergothioneine (125-500 nM), and then exposed to the UVA for 1 hour. FIG. 8-(B) represents the Western blot analysis results of the HO-1 the NQO-1 and the γ-GCLC proteins, wherein the HaCaT cells are pretreated with the ergothioneine (125-500 nM), and then exposed to the UVA for 4 hour.

Setting [1] is: 125-500 nM 24 hours pretreatment, UVA 15 J/cm^2, 4 hours.

SMILES strings stand for the structures.

In the case of `C[N+](C)(C)[C@@H](Cc1c[nH]c(=S)[nH]1)C(=O)[O-]` [ergothioneine, 2-mercapto histidine trimethylbetain], the “Nrf2 expression (Nrf2/Keap-1 ratio)” value (125-500 nM 24 hours pretreatment, UVA 15 J/cm^2, 1 hour) is listed as “dramatically increases the Nrf2 expression”. Under setting [1], the “expression of HO-1 protein” value is “also increased”, the “expression of NQO-1 protein” value is “also increased” and the “expression of γ-GCLC protein” value is listed as “also increased”. Further, the “total Nrf2 protein level” value (125-500 nM for 1 hour, no UVA, especially with 500 nM) was “increases the total Nrf2 protein level”. For the setting “125-500 nM for 4 hours, no UVA”, the “expression of HO-1 protein” value is “also increased”, the “expression of NQO-1 protein” value is listed as “also increased” and the “expression of γ-GCLC protein” value was “also increased”.
